In general, MIC refers to the least concentration at which growth counts as inhibited. Lower therefore signals inhibition by little substance.

≈ marks a conversion by molar mass, not a printed value. Where “and” joins values, the source holds several entries; their conditions need not be identical. Equal entries are not always repeated. *1 amine or outer side, *2 acyl side, *3 side chain or, on linkers, in order; H or OH if unused. Where a SMILES comes first, the peptide text is derived from it. [ ]: non-standard residue; d: D form. X1 = C#CCn1cc(C[C@H](N[*:1])C(=O)[*:2])c2ccccc21; NMeLeu(5-OH,4R) = CN[C@@H](C[C@@H](C)CO)C(=O)O; Phe(βR-OMe) = CO[C@H](c1ccccc1)[C@H](N)C(=O)O; Trp(1-Me) = Cn1cc(C[C@H](N)C(=O)O)c2ccccc21; NMeL = CN[C@@H](CC(C)C)C(=O)O; Pra = C#CC[C@H](N)C(=O)O

Data on seven compounds can be found in PMC10914731, “Homo-BacPROTAC-induced degradation of ClpC1 as a strategy against drug-resistant mycobacteria” (Nature Communications, 2024).

The assay deals with Mtb (RpoB S450L) ATCC 35838. Format: cell-based, Mycobacterium tuberculosis.
The compound `C#CCn1cc(C[C@@H]2NC(=O)[C@H](C(C)C)NC(=O)[C@H](CC(C)C)N(C)C(=O)[C@H](C(C)C)NC(=O)[C@H]([C@H](OC)c3ccccc3)NC(=O)[C@H](C)NC(=O)[C@H](C[C@@H](C)CO)N(C)C2=O)c2ccccc21` [Compound 5] (cyclo(A[Phe(βR-OMe)]V[NMeL]V[X1][NMeLeu(5-OH,4R)])) returned an MIC of 0.4 ± 0.0 µM (≈ 0.376 µg/mL). In other words, the sub-micromolar range.
On to `COC(c1ccccc1)C1NC(=O)C(C)NC(=O)C(CC(C)CO)N(C)C(=O)C(Cc2cn(Cc3cn(CCOCCOCCOCCOCCn4cc(Cn5cc(CC6NC(=O)C(C(C)C)NC(=O)C(CC(C)C)N(C)C(=O)C(C(C)C)NC(=O)C(C(OC)c7ccccc7)NC(=O)C(C)NC(=O)C(CC(C)CO)N(C)C6=O)c6ccccc65)nn4)nn3)c3ccccc23)NC(=O)C(C(C)C)NC(=O)C(CC(C)C)N(C)C(=O)C(C(C)C)NC1=O` (stereo not shown) [Compound 8], for which the minimum inhibitory concentration (MIC) is 0.2 ± 0.0 µM (≈ 0.434 µg/mL). Compared with the last compound, the MIC is about 2-fold lower.
The compound `C#CC[C@@H]1NC(=O)[C@H](CC(C)C)N(C)C(=O)[C@H](C(C)C)NC(=O)[C@H]([C@H](OC)c2ccccc2)NC(=O)[C@H](C)NC(=O)[C@H](C[C@@H](C)CO)N(C)C(=O)[C@H](Cc2cn(C)c3ccccc23)NC1=O` [Compound 10] (cyclo(A[Phe(βR-OMe)]V[NMeL][Pra][Trp(1-Me)][NMeLeu(5-OH,4R)])) came in with an MIC of 1.6 ± 0.0 µM (≈ 1.46 µg/mL).
The result for `COC(c1ccccc1)C1NC(=O)C(C)NC(=O)C(CC(C)CO)N(C)C(=O)C(Cc2cn(C)c3ccccc23)NC(=O)C(Cc2cn(CCCCCn3cc(CC4NC(=O)C(CC(C)C)N(C)C(=O)C(C(C)C)NC(=O)C(C(OC)c5ccccc5)NC(=O)C(C)NC(=O)C(CC(C)CO)N(C)C(=O)C(Cc5cn(C)c6ccccc56)NC4=O)nn3)nn2)NC(=O)C(CC(C)C)N(C)C(=O)C(C(C)C)NC1=O` (stereo not shown) [Compound 12] reads 0.2 ± 0.0 µM (≈ 0.396 µg/mL); that for `NNC(=O)c1ccncc1` [Isoniazid], 0.5 ± 0.0 µM and 0.45 µM.
As to `COc1c(N2C[C@@H]3CCCN[C@@H]3C2)c(F)cc2c(=O)c(C(=O)O)cn(C3CC3)c12` [Moxifloxacin, reference compound], the minimal inhibitory concentration (MIC) is 0.3 ± 0.0 µM and 0.31 µM.
As to `CO[C@H]1/C=C/O[C@@]2(C)Oc3c(C)c(O)c4c(O)c(c(/C=N/N5CCN(C)CC5)c(O)c4c3C2=O)NC(=O)/C(C)=C\C=C\[C@H](C)[C@H](O)[C@@H](C)[C@@H](O)[C@@H](C)[C@H](OC(C)=O)[C@@H]1C` [Rifampicin, reference compound], the minimum inhibitory concentration (MIC) was >38.9 µM and >38.88 µM.
